Here are results for 3 compounds from patent EP4703354A1, “COMPOUND AS CCR6 ANTAGONIST, AND PHARMACEUTICAL COMPOSITION AND USE THEREOF” (Wuhan Createrna Science and Technology Co.,Ltd., priority 2023, dated 2024).

The nature of the data set: in vivo pharmacokinetic study in SD rats. As to conditions: male, rat, plasma; for bioavailability: 1 mg/kg PO vs 1 mg/kg IV, read-out: Oral bioavailability F (%); for AUC(0-t) / Cmax / half-life: 1 mg/kg. The gist of the method: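 Male SD rats (180-200 g), 3 per route: single fasted oral gavage in 1% Tween 80 or tail-vein IV bolus in 50% PEG400. Orbital blood into EDTA-K2 sampled to 8 h; plasma analysed and PK parameters derived by non-compartmental analysis.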

For `CN(C)C(=O)c1nccc(Nc2c(N[C@@H](C#CC3CCC3)[C@]3(C)CC(F)(F)CO3)c(=O)c2=O)c1O` (single isomer, unassigned) [110A], the bioavailability (commonly dose-corrected exposure relative to a reference, in per cent) amounted to 68.6%. Besides, under “IV”, the AUC(0-t) (in general, exposure summed from dosing to a finite time, without extrapolation to infinity) was found to be 580 ng·h/mL; the Cmax (commonly the highest concentration seen after dosing) turned out to be 1860 ng/mL; the half-life – broadly, how long it takes for the measured level to halve – was 19.2 min. In addition, under “PO”, the AUC(0-t) is 397 ng·h/mL, the Cmax was 311 ng/mL and the half-life is 55.8 min.

For `CN(C)C(=O)c1nccc(Nc2c(N[C@@H](c3nc(Cl)ccc3F)[C@@]3(C)CC(F)(F)CO3)c(=O)c2=O)c1O` [068B, 4-((2-(((S)-(6-chloro-3-fluoropyridin-2-yl)((R)-4,4-difluoro-2-methyltetrahydrofuran-2-yl)methyl)amino)-3,4-dioxocyclobut-1-en-1-yl)amino)-3-hydroxy-N,N-dimethylpicolinamide], the bioavailability was 23.4%. For the same compound, for the setting “IV”, the area under the curve AUC(0-t) came out at 1270 ng·h/mL, the concentration peaked (Cmax) at 3630 ng/mL and the half-life was 15 min. In addition, where the note is “PO”, the area under the curve AUC(0-t) turned out to be 298 ng·h/mL, the highest level (Cmax) was 291 ng/mL and the half-life was 91.8 min.

In the case of `Cc1cc(F)cnc1[C@H](Nc1c(Nc2ccnc(C(=O)N(C)C)c2O)c(=O)c1=O)[C@]1(C)CC(F)(F)CO1` [093A, 4-((2-(((S)-((S)-4,4-difluoro-2-methyltetrahydrofuran-2-yl)(5-fluoro-3-methylpyridin-2-yl)methyl)amino)-3,4-dioxocyclobut-1-en-1-yl)amino)-3-hydroxy-N,N-dimethylpicolinamide], the bioavailability was found to be 23.7%. Under “IV”, the AUC(0-t) turned out to be 1240 ng·h/mL, the highest level (Cmax) was 4840 ng/mL and the half-life is 14.4 min. For the setting “PO”, this compound showed an AUC(0-t) of 295 ng·h/mL, a Cmax of 271 ng/mL and a half-life of 66 min.
